Assay results: ChEMBL document CHEMBL3813674 (Medchemcomm, 2016)
Values after ≈ are worked out from the molar mass of the structure shown.

Legend:
Type in all cases: physicochemical
[1] = Solubility of the compound in ChCl-LA1 solvent at HBA:HBD 1:5 molar ratio and 37 degC measured after 24 hrs by HPLC analysis
[2] = Solubility of the compound in ChCl-MA1 solvent at 37 degC measured after 24 hrs by HPLC analysis
[3] = Solubility of the compound in ChCl-LA1 solvent at HBA:HBD 1:3 molar ratio and 37 degC measured after 24 hrs by HPLC analysis
[4] = Solubility of the compound in ChCl-P solvent at HBA:HBD 1:2 molar ratio and 37 degC measured after 24 hrs by HPLC analysis
[5] = Solubility of the compound in ChCl-P solvent at HBA:HBD 1:3 molar ratio and 37 degC measured after 24 hrs by HPLC analysis
[6] = Solubility of the compound in EAC-P solvent at 37 degC measured after 24 hrs by HPLC analysis
[7] = Solubility of the compound in ChBt-LA1 solvent at 37 degC measured after 24 hrs by HPLC analysis
[8] = Solubility of the compound in ChCl-GA2 solvent at 37 degC measured after 24 hrs by HPLC analysis
[9] = Solubility of the compound in ChCl-LA1 solvent at HBA:HBD 1:4 molar ratio and 37 degC measured after 24 hrs by HPLC analysis
[10] = Solubility of the compound in ChCl-LA1 solvent at 37 degC measured after 24 hrs by HPLC analysis
[11] = Solubility of the compound in ChCl-LA2 solvent at 37 degC measured after 24 hrs by HPLC analysis
[12] = Solubility of the compound in ChCl-G solvent at 37 degC measured after 24 hrs by HPLC analysis
[13] = Solubility of the compound in ChCl-U solvent at 37 degC measured after 24 hrs by HPLC analysis
[14] = Solubility of the compound in levulinic acid at 37 degC measured after 24 hrs by HPLC analysis
[15] = Solubility of the compound in EAC-EG solvent at 37 degC measured after 24 hrs by HPLC analysis
[16] = Solubility of the compound in ChCl-EG solvent at 37 degC measured after 24 hrs by HPLC analysis
[17] = Solubility of the compound in ChCl-GA1 solvent at 37 degC measured after 24 hrs by HPLC analysis
[18] = Solubility of the compound in water at 37 degC measured after 24 hrs by HPLC analysis; conditions: for solubility at 24 h: water
[19] = Solubility of the compound in EAC-LA2 solvent at 37 degC measured after 24 hrs by HPLC analysis
[20] = Solubility of the compound in 1,2-propanediol at 37 degC measured after 24 hrs by HPLC analysis
[21] = Solubility of the compound in ChCl-P solvent at HBA:HBD 1:4 molar ratio and 37 degC measured after 24 hrs by HPLC analysis
[22] = Solubility of the compound in ChCl-LA1 solvent at HBA:HBD 1:2 molar ratio and 37 degC measured after 24 hrs by HPLC analysis
[23] = Solubility of the compound in TPAB-LA1 solvent at 37 degC measured after 24 hrs by HPLC analysis
[24] = Solubility of the compound in ChCl-OA solvent at 37 degC measured after 24 hrs by HPLC analysis
[25] = Solubility of the compound in TPAB-P solvent at 37 degC measured after 24 hrs by HPLC analysis
[26] = Solubility of the compound in BE-LA1 solvent at 37 degC measured after 24 hrs by HPLC analysis
[27] = Solubility of the compound in ChCl-P solvent at HBA:HBD 1:5 molar ratio and 37 degC measured after 24 hrs by HPLC analysis
[28] = Ratio of half life of compound in ChCl-P solvent to half life of compound in water; conditions: buffer
[29] = Half life of compound in water at 2.5 mg by HPLC method
[30] = Half life of compound in ChCl-P solvent at 2.5 mg by HPLC method
[31] = Half life of the compound at optimal pH

solubility [2] [mg/mL]	solubility [4] [mg/mL]	solubility [5] [mg/mL]	solubility [6] [mg/mL]	solubility [7] [mg/mL]	solubility [8] [mg/mL]	solubility [10] [mg/mL]	solubility [11] [mg/mL]	solubility [12] [mg/mL]	solubility [13] [mg/mL]	solubility [14] [mg/mL]	solubility [15] [mg/mL]	solubility [16] [mg/mL]	solubility [17] [mg/mL]	solubility [19] [mg/mL]	solubility [20] [mg/mL]	solubility [21] [mg/mL]	solubility [23] [mg/mL]	solubility [24] [mg/mL]	solubility [25] [mg/mL]	Compound	also measured
266.3 (≈ 1760 mM)	324	324	188.6 (≈ 1250 mM)	89.07 (≈ 589 mM)	224.8 (≈ 1490 mM)	279 (≈ 1850 mM)	254 (≈ 1680 mM)	140.3 (≈ 928 mM)	169.7 (≈ 1120 mM)	144.5 (≈ 956 mM)	173.9 (≈ 1150 mM)	287 (≈ 1900 mM)	238.1 (≈ 1580 mM)	141.2 (≈ 934 mM)	235.1 (≈ 1560 mM)	267.9	316.5 (≈ 2090 mM)	186.7 (≈ 1240 mM)	352.7 (≈ 2330 mM)	CC(=O)Nc1ccc(O)cc1 [ACETAMINOPHEN]	solubility [1]: 199.8 mg/mL; solubility [3]: 217.4 mg/mL; solubility [9]: 208.4 mg/mL; solubility at 24 h [18]: 19.9 mg/mL (≈ 132 mM); solubility [22]: 279 mg/mL; solubility [26]: 212.1 mg/mL (≈ 1400 mM); solubility [27]: 246.2 mg/mL
126.3 (≈ 701 mM)	202	184.6	82.18 (≈ 456 mM)	37.06 (≈ 206 mM)	67.43 (≈ 374 mM)	135 (≈ 749 mM)	91.3 (≈ 507 mM)	42.48 (≈ 236 mM)	147.9 (≈ 821 mM)	95.63 (≈ 531 mM)	56.84 (≈ 315 mM)	139 (≈ 772 mM)	76.28 (≈ 423 mM)	44.57 (≈ 247 mM)	134.3 (≈ 745 mM)	179.2	163.7 (≈ 909 mM)	86.32 (≈ 479 mM)	220.2 (≈ 1220 mM)	CC(=O)Oc1ccccc1C(=O)O [ASPIRIN]	solubility [1]: 104.4 mg/mL; solubility [3]: 113.1 mg/mL; Ratio [28]: 8.2; half-life [29]: 128 min; half-life [30]: 1050 min; solubility [9]: 109.9 mg/mL; solubility ([18]; buffer, 24 h): 3.3 mg/mL (≈ 18.3 mM); solubility [22]: 135 mg/mL; half-life [31]: < 14 days; solubility [26]: 149.8 mg/mL (≈ 831 mM); solubility [27]: 168.7 mg/mL

Compound	solubility [2] [mg/mL]	solubility [4] [mg/mL]	solubility [5] [mg/mL]	solubility [6] [mg/mL]	solubility [7] [mg/mL]	solubility [8] [mg/mL]	solubility [10] [mg/mL]	solubility [11] [mg/mL]	solubility [12] [mg/mL]	solubility [13] [mg/mL]	solubility [14] [mg/mL]	solubility [15] [mg/mL]	solubility [16] [mg/mL]	solubility [17] [mg/mL]	solubility [19] [mg/mL]	solubility [20] [mg/mL]	solubility [21] [mg/mL]	solubility [23] [mg/mL]	solubility [24] [mg/mL]	solubility [25] [mg/mL]	also measured
CC(C)Cc1ccc(C(C)C(=O)O)cc1 (stereo unspecified) [IBUPROFEN]	25.87 (≈ 125 mM)	183.3	191.7	141.6 (≈ 686 mM)	35.05 (≈ 170 mM)	9.49 (≈ 46 mM)	78.69 (≈ 381 mM)	17.95 (≈ 87 mM)	3.82 (≈ 18.5 mM)	4.5 (≈ 21.8 mM)	159.4 (≈ 773 mM)	21.42 (≈ 104 mM)	24.29 (≈ 118 mM)	25.38 (≈ 123 mM)	20.67 (≈ 100 mM)	380 (≈ 1840 mM)	226.1	194.8 (≈ 944 mM)	31.51 (≈ 153 mM)	383.4 (≈ 1860 mM)	solubility at 24 h [18]: 0.07 mg/mL (≈ 0.339 mM); solubility [26]: 280.2 mg/mL (≈ 1360 mM); solubility [27]: 267.6 mg/mL
